Columns and labels:
HNF-1α = assay: Western blot, HNF-1α protein level in HepG2 cells; type: cell-based, human; details: HepG2, 50 µM, 24 h, mean ± SD
Description: (§1) The HepG2 cell line was bought from ATCC (HB-8065, ATCC from LGC Standards, Milan, Italy) and was cultured in DMEM high glucose with stable L-glutamine, supplemented with 10% FBS, 100 U/mL penicillin, 100 µg/mL streptomycin (complete growth medium) with incubation at 37 °C under 5% CO2 atmosphere.
(§2) Immunoblotting experiments were performed using optimized protocol. A total of 1.5 × 10^5 HepG2 cells/well (24-well plate) were treated with 50 μM of P5 and P5-met for 24 h. After each treatment, the supernatants were collected and stored at −20°C; cells were scraped in 40 µL ice-cold lysis buffer (RIPA buffer + inhibitor cocktail + 1:100 PMSF + 1:100 Na-orthovanadate + 1:1000 β-mercaptoethanol) and transferred in ice-cold microcentrifuge tubes. […] Total proteins were quantified by the Bradford’s method and 50 μg of total proteins loaded on a pre-cast 7.5% Sodium Dodecyl Sulfate-Polyacrylamide (SDS-PAGE) gel at 130 V for 45 min. […] Target proteins, on milk or BSA blocked membrane, were detected by primary antibodies as follows: anti-SREBP-2, anti-LDLR, anti-HMGCoAR, anti-PCSK9, anti HNF1-α and anti-β-actin. Secondary antibodies conjugated with HRP and a chemiluminescent reagent were used to visualize target proteins and their signal was quantified using the Image Lab Software (Biorad, Hercules, CA, USA). […]

HMGCoAR = assay: Western blot, HMGCoAR protein level in HepG2 cells; type: cell-based, human; details: HepG2, 50 µM, 24 h, mean ± SD
Description: as §1, §2

H-LPKHSDAD-OH [Peptide P5-met]
Decrease of HNF-1α protein (HNF-1α): 10.8 ± 3.5%
HMGCoAR protein level versus the control (HMGCoAR): 117.9 ± 12.1%

— publication PMC8000724, “Trans-Epithelial Transport, Metabolism, and Biological Activity Assessment of the Multi-Target Lupin Peptide [sequence] (P5) and Its Metabolite [sequence] (P5-Met)” (Nutrients, 2021)
